Results: US7795244B2, “Penem prodrugs” (priority 2006, dated 2010)
In brackets after ≈: the same amount, converted by molar mass. Several values for one entry are separate records, joined by “and”; a condition that tells them apart may be missing. Equal entries are not always repeated. Where two headings read alike, the source gives them in different places. Each block holds one compound with its values, some of them ahead of it.

Columns and labels:
[1] = Stability in the presence of porcine pancrelipase (PPE); assay type: in vitro ADME; conditions: pig, porcine pancrelipase (ku-zyme HP) in phosphate buffer, 50 μM substrate, pH 7.4, 37° C.
[2] = human, pH 7.4
[3] = Stability in human intestinal juice (HIJ); conditions: pooled human intestinal juice (4 subjects), buffered, pH 7.4
[4] = by comparison to intravenous AUCs (Table 4, Foulds et al.), cited from earlier work
plasma carnitine = experiment: Acute model of carnitine depletion; assay type: in vivo; conditions: 200 mg/kg BID orally for 4 days, Sprague-Dawley rats, relative to vehicle control (FIG. 1)
Procedure: Of interest was a comparison between Compound 1 and […] in terms of the prodrug side chains' tendency or lack thereof to deplete plasma carnitine following metabolism of the intact prodrug. This was evaluated in vivo using an acute model of carnitine depletion in Sprague-Dawley rats. To understand the potential impact in vivo, radiolabeled pivalic acid (Compound B1 side chain) and 2-ethylbutyric acid (Compound 1 side chain) were administered orally at a dose of 200 mg/kg BID for 4 days to two separate groups of animals. […] Doses were administered in 100 mM sodium phosphate pH 6.6 at a dose volume of 10 mL/kg. Blood samples were obtained at 24 hour intervals following initiation of the study, processed for plasma and assayed for carnitine levels by LC/MS/MS. A vehicle control consisting of oral administration of an equal volume of buffer without compound was completed as a baseline comparison.

[5] = Pharmacokinetics of total radioactivity after single oral dose; assay type: in vivo, Sprague-Dawley Rats; conditions: single oral 200 mg/kg; rats
Procedure: A separate study using a single 200 mg/kg dose of each radiolabeled compound (pivalic acid and […]) was completed in rats to determine systemic exposure of dose following oral administration. The oral administration route was chosen because it is expected that the majority of hydrolysis of the prodrugs will occur within the intestine prior to entering systemic circulation. Plasma samples were obtained prior to dosing and at 0.25, 0.5, 1, 4, 8, and 24 hr post-dose. Samples were quantified for radioactivity by liquid scintillation counting and the counts were converted to […] equivalents/mL. As shown in Table 5 and FIG. 2, once absorbed, radioactivity associated with 2-ethylbutyric acid is cleared 4.5 fold faster than pivalic acid, reflecting efficient metabolic processing and excretion of the compound.

K. pneumoniae 1109 = experiment: Murine acute systemic infection model; conditions: Murine acute systemic infection vs. K. pneumoniae 1109; oral BID; survival day four post-infection; repeat experiments
Equilibrium solubility = assay type: physicochemical; conditions: aqueous buffer, thermodynamic from solid, 25 mM phosphate buffer (pH 5), ambient temperature / 25° C.
Procedure: Vials containing excess prodrug in phosphate buffer were rotated for up to 48 hours. After the equilibrium period, samples were pulled, filtered through 0.45 μm Gelman Acrodisc Nylon syringe filter and analyzed for drug concentration using HPLC. The HPLC conditions were: Column. C18, SymmetryShield RP, Waters, 4.6×150 mm, 3.5 micron; Mobile phase A: Acetonitrile; Mobile phase B: 0.1% TFA in water; Flow rate, 1 mL/min; Run Time: 30 min Inj. vol. 20 μL; Detection: 210 nm; Dissolving solvent: Acetonitrile/water (50:50 v:v).

S. pneumoniae 1095 [6] = experiment: Murine respiratory tract infection model; conditions: Murine respiratory tract infection vs. S. pneumoniae 1095; oral BID for two days from 18 h post-infection; survival day ten; repeat experiments
S. pneumoniae 1095 [7] = experiment: Murine acute systemic infection model; conditions: Murine acute systemic infection vs. S. pneumoniae 1095; oral BID; survival day four post-infection; repeat experiments
H. influenzae BLNAR = experiment: Gerbil otitis media model; conditions: Gerbil otitis media vs. H. influenzae BLNAR, oral TID for two days from 18 h post-infection, bacterial levels in middle ear fluid day four, repeat experiments
K. pneumoniae 6485 = experiment: Murine acute systemic infection model; conditions: Murine acute systemic infection vs. K. pneumoniae 6485; oral BID; survival day four post-infection; repeat experiments
[8] = system: porcine pancrelipase (PPE); experiment: Stability in the presence of porcine pancrelipase (PPE); assay type: in vitro ADME; conditions: ku-zyme Lot 1; 50 μM substrate, pH 7.4, 37° C.
[9] = humans; given orally as a mixture of two stereoisomers; Foulds et al.; cited from earlier work

- half-life at 50 µM ([1]; pH 7.4, ku-zyme Lot 1): 21.1 min
SMILES: CCC(CC)(CC)C(=O)OCOC(=O)C1=C(S[C@H]2CC[S@@+]([O-])C2)S[C@@H]2[C@@H]([C@@H](C)O)C(=O)N12 [Compound C]

- half-life at 50 µM ([1]; pH 7.4, ku-zyme Lot 1): 14.4 min
SMILES: CCCC(C)(C)C(=O)OCOC(=O)C1=C(S[C@H]2CC[S@@+]([O-])C2)S[C@@H]2[C@@H]([C@@H](C)O)C(=O)N12 [Compound I]

- half-life at 50 µM ([1]; pH 7.4, ku-zyme Lot 1): 21.2 min
- HIJ Clint (avg) [2]: 0.18 mL/min
- Km [3]: 390 µM
SMILES: CC(=O)OCOC(=O)C1=C(S[C@H]2CC[S@@+]([O-])C2)S[C@@H]2[C@@H]([C@@H](C)O)C(=O)N12 [G]

- half-life at 50 µM ([1]; pH 7.4, ku-zyme Lot 1): 6.8 min
SMILES: CCC(C)C(=O)OCOC(=O)C1=C(S[C@H]2CC[S@@+]([O-])C2)S[C@@H]2[C@@H]([C@@H](C)O)C(=O)N12 (stereo partly shown) [H]

- half-life at 50 µM ([1]; pH 7.4, ku-zyme Lot 1): 11 min
SMILES: CCC(C)(C)C(=O)OCOC(=O)C1=C(S[C@H]2CC[S@@+]([O-])C2)S[C@@H]2[C@@H]([C@@H](C)O)C(=O)N12 [J]

- half-life at 50 µM ([1]; pH 7.4, ku-zyme Lot 1): 14.5 min
SMILES: CCCCC(C)(C)C(=O)OCOC(=O)C1=C(S[C@H]2CC[S@@+]([O-])C2)S[C@@H]2[C@@H]([C@@H](C)O)C(=O)N12 [K]

- half-life at 50 µM ([1]; pH 7.4, ku-zyme Lot 1): 39.4 min
SMILES: CCC(C)(CC)C(=O)OCOC(=O)C1=C(S[C@H]2CC[S@@+]([O-])C2)S[C@@H]2[C@@H]([C@@H](C)O)C(=O)N12 [M]

- half-life at 50 µM ([1]; pH 7.4, ku-zyme Lot 1): 11.1 min
SMILES: CC(C)C(C)(C)C(=O)OCOC(=O)C1=C(S[C@H]2CC[S@@+]([O-])C2)S[C@@H]2[C@@H]([C@@H](C)O)C(=O)N12 [N]

- PPE Half Life [8]: 4.2 min
SMILES: CCC(C)C(=O)OCOC(=O)C1=C(S[C@H]2CC[S@@+]([O-])C2)S[C@@H]2[C@@H]([C@@H](C)O)C(=O)N12 (stereo partly shown) [P]

- half-life at 50 µM ([1]; pH 7.4, ku-zyme Lot 1): 4.8 min
SMILES: CCCC(C)C(=O)OCOC(=O)C1=C(S[C@H]2CC[S@@+]([O-])C2)S[C@@H]2[C@@H]([C@@H](C)O)C(=O)N12 (stereo partly shown) [Q]

- half-life at 50 µM ([1]; pH 7.4, ku-zyme Lot 1): 6.3 min
SMILES: C[C@@H](O)[C@H]1C(=O)N2C(C(=O)OCOC(=O)C(C)(C)C(C)(C)C)=C(S[C@H]3CC[S@@+]([O-])C3)S[C@H]12 [S]

- half-life at 50 µM ([1]; pH 7.4, ku-zyme Lot 1): 10.5 min
SMILES: CC(C)CC(C)(C)C(=O)OCOC(=O)C1=C(S[C@H]2CC[S@@+]([O-])C2)S[C@@H]2[C@@H]([C@@H](C)O)C(=O)N12 [V]

- half-life at 50 µM ([1]; pH 7.4, ku-zyme Lot 1): 7.6 min
SMILES: C[C@@H](O)[C@H]1C(=O)N2C(C(=O)OCOC(=O)CC(C)(C)C)=C(S[C@H]3CC[S@@+]([O-])C3)S[C@H]12 [W]

- half-life at 50 µM ([1]; pH 7.4, ku-zyme Lot 1): 4.7 min
SMILES: CCC(=O)OCOC(=O)C1=C(S[C@H]2CC[S@@+]([O-])C2)S[C@@H]2[C@@H]([C@@H](C)O)C(=O)N12 [X]

The remaining lines, values behind:

SMILES: C[C@@H](O)[C@H]1C(=O)N2C(C(=O)OCOC(=O)C(C)(C)C)=C(S[C@H]3CC[S@@+]([O-])C3)S[C@H]12 (racemic) [Compound B2, reference compound]
- half-life at 50 µM ([1]; pH 7.4, ku-zyme Lot 1): 11.6 min
- half-life at 50 µM ([1]; pH 7.4, ku-zyme lot 2): 19.6 min
- HIJ Clint (avg) [2]: 0.09 mL/min
- Km [3]: 40 µM
- fraction absorbed ([4]; sulopenem equivalent dose 205 mg): 38.5%
- fraction absorbed ([4]; sulopenem equivalent dose 409 mg): 33.5%

SMILES: CCC(CC)C(=O)O [2-ethylbutyric acid]
- change in plasma carnitine (plasma carnitine): statistically insignificant changes in plasma carnitine
- clearance of radioactivity, fold faster than pivalic acid [5]: 4.5 fold

SMILES: CCOC(C)(C)C(=O)OCOC(=O)C1=C(S[C@H]2CC[S@@+]([O-])C2)S[C@@H]2[C@@H]([C@@H](C)O)C(=O)N12 [Compound 2, (2-Ethoxy-2-methyl-1-oxopropoxy)methyl (5R,6S)-6-[(1R)-1-hydroxyethyl]-7-oxo-3-[[(1R,3S)-tetrahydro-1-oxido-3-thienyl]thio]-4-thia-1-azabicyclo[3.2.0]hept-2-ene-2-carboxylate]
- PD50 (K. pneumoniae 1109): 12.5 mg/kg and 16.2 mg/kg
- solubility (Equilibrium solubility): 2900 µg/mL (≈ 5870 µM)
- half-life at 50 µM ([1]; pH 7.4, ku-zyme Lot 1): 19.1 min
- HIJ Clint (avg) [2]: 0.13 mL/min
- PD50 (S. pneumoniae 1095 [6]): 19.7 mg/kg and 38.5 mg/kg
- Km [3]: 105 µM
- PD50 (S. pneumoniae 1095 [7]): 7.9 mg/kg and 6.3 mg/kg and 11.0 mg/kg

SMILES: C[C@@H](O)[C@H]1C(=O)N2C(C(=O)OCOC(=O)OC3CCC(C)(C)CC3)=C(S[C@H]3CC[S@@+]([O-])C3)S[C@H]12 [Compound A]
- PD50 (K. pneumoniae 1109): 10.1 mg/kg and 15.3 mg/kg
- ED50 (H. influenzae BLNAR): 8.7 mg/kg
- ED50 (H. influenzae BLNAR; Haemophilus influenzae, in Meriones unguiculatus, po): 6.9 mg/kg
- solubility (Equilibrium solubility): 136 µg/mL (≈ 255 µM)
- half-life at 50 µM ([1]; pH 7.4, ku-zyme Lot 1): 3.9 ± 1.1 min
- half-life at 50 µM ([1]; pH 7.4, ku-zyme lot 2): 6.3 min
- HIJ Clint (avg) [2]: 0.38 mL/min
- PD50 (S. pneumoniae 1095 [6]): 17.8 mg/kg and 20.8 mg/kg
- Km [3]: 300 µM
- PD50 (S. pneumoniae 1095 [7]): 9.0 mg/kg and 15.3 mg/kg
- PD50 (K. pneumoniae 6485): 40.7 mg/kg

SMILES: C[C@@H](O)[C@H]1C(=O)N2C(C(=O)OCOC(=O)C(C)(C)C)=C(S[C@H]3CC[S@@+]([O-])C3)S[C@H]12 [Compound B1, reference compound]
- solubility (Equilibrium solubility): 389 µg/mL (≈ 839 µM)
- half-life at 50 µM ([1]; pH 7.4, ku-zyme lot 2): 22.5 min
- HIJ Clint (avg) [2]: 0.11 mL/min
- Km [3]: 29 µM
- PD50 (K. pneumoniae 6485): >100 mg/kg

SMILES: CC(C)CC(=O)OCOC(=O)C1=C(S[C@H]2CC[S@@+]([O-])C2)S[C@@H]2[C@@H]([C@@H](C)O)C(=O)N12 [E]
- half-life at 50 µM ([1]; pH 7.4, ku-zyme Lot 1): 6.4 min

SMILES: CC(C)C(=O)OCOC(=O)C1=C(S[C@H]2CC[S@@+]([O-])C2)S[C@@H]2[C@@H]([C@@H](C)O)C(=O)N12 [F]
- half-life at 50 µM ([1]; pH 7.4, ku-zyme Lot 1): 4.7 min

SMILES: CCCC(CCC)C(=O)OCOC(=O)C1=C(S[C@H]2CC[S@@+]([O-])C2)S[C@@H]2[C@@H]([C@@H](C)O)C(=O)N12 [O]
- half-life at 50 µM ([1]; pH 7.4, ku-zyme Lot 1): 8.3 min

SMILES: CCC(C(=O)OCOC(=O)C1=C(S[C@H]2CC[S@@+]([O-])C2)S[C@@H]2[C@@H]([C@@H](C)O)C(=O)N12)C(C)C (stereo partly shown) [R]
- half-life at 50 µM ([1]; pH 7.4, ku-zyme Lot 1): 5.3 min

SMILES: CC(C)C(C(=O)OCOC(=O)C1=C(S[C@H]2CC[S@@+]([O-])C2)S[C@@H]2[C@@H]([C@@H](C)O)C(=O)N12)C(C)C [T]
- half-life at 50 µM ([1]; pH 7.4, ku-zyme Lot 1): 7.7 min

SMILES: CC(C)CC(CC(C)C)C(=O)OCOC(=O)C1=C(S[C@H]2CC[S@@+]([O-])C2)S[C@@H]2[C@@H]([C@@H](C)O)C(=O)N12 [U]
- half-life at 50 µM ([1]; pH 7.4, ku-zyme Lot 1): 6.4 min

SMILES: C[C@@H](O)[C@H]1C(=O)N2C(C(=O)OCOC(=O)C(C(C)(C)C)C(C)(C)C)=C(S[C@H]3CC[S@@+]([O-])C3)S[C@H]12 [Y]
- half-life at 50 µM ([1]; pH 7.4, ku-zyme Lot 1): 8 min

SMILES: CC(O)C1C(=O)N2C(C(=O)OCOC(=O)C(C)(C)C)=C(SC3CC[S+]([O-])C3)SC12 (stereo not shown) [sulopenem POM ester]
- oral bioavailability (in words) [9]: orally bioavailable in humans
